Read-outs that look alike come from different tables or passages of the source.
Tests used:
[1] = molecular target: T1, human 5-HT2A receptor (Homo sapiens, UniProt P28223); design: expressed in transfected cells; host or cells: HEK 293 (transient), membrane preparations; conditions: read-out: 5-HT2A Ki, [3H]ketanserin, cited from earlier work
[2] = tested on: male C57BL/6 J mice; assay: Head-twitch response (HTR), magnetometer coil recording; assay type: in vivo; conditions: for HTR Counts (Mean ± SEM): 30 min; for ED50: Mus musculus, 0.5 h, HTR, 30 min recording, male C57BL/6 J mice; for ED50 / effect on HTR counts (in words): IP; for maximum number of head twitches (mean ± SEM): during the 30-min assessment period; for effect on HTR counts (in words): versus vehicle/baseline
Experimental: Male C57BL/6 J mice (Jackson Laboratory, Bar Harbor, ME) were housed in a vivarium at the University of California San Diego (UCSD), which is an AAALAC-approved animal facility that complies with Federal and State requirements for care and treatment of laboratory animals. The mice (6–8 weeks old) were housed in a climate-controlled room with a reversed light-cycle (lights on at 19:00 h, off at 07:00 h) up to 4 animals per cage. Food and water were provided ad libitum, except during behavioral testing which occurred between 10:00 and 18:00 h. All experiments were conducted according to NIH guidelines and were approved by the UCSD animal care committee.
Head movement was recorded using a head-mounted magnet and a magnetometer coil (Halberstadt and Geyer [2013]). Briefly, mice were anesthetized, a small incision was made in the scalp, and a neodymium magnet was attached to the dorsal surface of the cranium using dental cement. Following a 1–2-week recovery period, behavioral experiments were conducted in a well-lit room with at least 7 days between sessions to avoid any carryover effects. Mice were treated with vehicle or test compound and then placed in a glass cylinder surrounded by a magnetometer coil and activity was recorded for 30 min. All test substances were administered IP dissolved in saline using an injection volume of 5 mL/kg. Coil voltage was filtered (5–10 kHz lowpass), digitized (20 kHz sampling rate), and saved to disk using a Powerlab/8SP with LabChart v 7.3.2 (ADInstruments, Colorado Springs, CO). To detect head twitches, events in the recordings were converted into scalograms using a wavelet transform and then the images were classified using a multistage approach combining the deep convolutional neural network (CNN) ResNet-50 with a support vector machine (SVM) algorithm (Halberstadt [2020]). HTR counts were analyzed using a one-way Welch analysis of variance (ANOVA). Post hoc pairwise comparisons were performed using Dunnett’s test. […] Median effective doses (ED50 values) and 95% confidence intervals were calculated using nonlinear regression (Prism ver. 9.0.2, GraphPad Software Inc, San Diego, CA, USA).

[3] = tested on: rats; design: method as in Eshleman et al. 2014; Fantegrossi et al. 2005; conditions: rats trained to discriminate LSD or DMT; ref Eshleman et al. 2014; Fantegrossi et al. 2005; cited from earlier work
[4] = tested on: monkeys; design: method as in Khorana et al. 2004; Li et al. 2010, 2008; conditions: ref Khorana et al. 2004, Li et al. 2010, 2008; cited from earlier work
[5] = tested on: rats; design: method as in Khorana et al. 2004; Li et al. 2010, 2008; conditions: ref Khorana et al. 2004, Li et al. 2010, 2008; cited from earlier work
[6] = tested on: humans; conditions: cited from earlier work; for Human active dose range: p.o., ref Shulgin and Shulgin 1991, Trachsel et al. 2013
[7] = tested on: mice; conditions: ref Fantegrossi et al. 2005, cited from earlier work
[8] = molecular target: T1, human 5-HT2A receptor; assay: Agonist activity at the 5-HT2A receptor, FLIPR calcium flux in NIH-3T3 cells; assay type: cell-based; design: expressed in transfected cells
Experimental: NIH-3T3 cells stably expressing the human 5-HT2A receptor were incubated in HEPES-Hank’s Balanced Salt Solution (HBSS) buffer (Gibco, Zug, Switzerland; 70,000 cells/100 μL) for 1 h at 37 °C in poly-D-lysine-coated 96-well plates. Thereafter, 100 μL of dye solution (fluorescence imaging plate reader [FLIPR] calcium 5 assay kit dye solution; Molecular Devices, Sunnyvale, CA, USA) was added to each well and the plates were incubated for 1 h at 37 °C. The plates were then placed into a FLIPR and 25 μL of the test drugs diluted in HEPES-HBSS containing 250 mM probenicid was added to each well online. The increase in fluorescence was measured for 51 s, and EC50 values were derived from the concentration–response curves using nonlinear regression.

[9] = molecular target: T2, h5-HT2C receptors (Homo sapiens, UniProt P28335); assay: 5-HT2C receptor binding, [3H]mesulergine displacement
T2 construct: expressed in transfected cells; host or cells: HEK 293 (transient), membrane preparations
T2 sequence (P28335 33-458): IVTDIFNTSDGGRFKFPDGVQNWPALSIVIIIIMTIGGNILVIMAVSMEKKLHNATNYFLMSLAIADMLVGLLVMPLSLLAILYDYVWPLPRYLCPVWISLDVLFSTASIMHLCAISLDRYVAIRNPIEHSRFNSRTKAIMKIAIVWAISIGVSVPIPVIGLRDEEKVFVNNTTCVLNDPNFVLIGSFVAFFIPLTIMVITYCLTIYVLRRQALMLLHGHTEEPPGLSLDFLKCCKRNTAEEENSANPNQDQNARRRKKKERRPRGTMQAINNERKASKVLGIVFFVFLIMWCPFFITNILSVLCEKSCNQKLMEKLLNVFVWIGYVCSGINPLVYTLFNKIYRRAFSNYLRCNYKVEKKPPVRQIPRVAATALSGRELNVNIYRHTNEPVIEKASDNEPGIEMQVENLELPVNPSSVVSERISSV
Experimental: (§1) 5-HT receptor binding affinities were assessed as previously described in detail (Luethi et al. [2018]). In brief, membrane preparations of transiently transfected HEK 293 cells were incubated with selective radioligands at concentrations equal to the corresponding Kd and then ligand displacement by the test drugs was measured. The difference between the total binding and the nonspecific binding determined in the presence of selective competitors was defined as specific binding. The following radioligands and competitors, respectively, were used: 0.40 nM [^3H]ketanserin and 10 μM spiperone (serotonin 5-HT2A receptor), 1.4 nM [^3H]mesulergine and 10 μM mianserin (serotonin 5-HT2C receptor). The IC50 values of the radioligand binding assays were determined using nonlinear regression curves for every drug in a one-site model. Ki values corresponding to the dissociation constants were calculated with the Cheng-Prusoff equation.

[10] = molecular target: T1, human 5-HT2A receptor; assay: 5-HT2A receptor binding, [3H]ketanserin displacement; design: expressed in transfected cells; host or cells: HEK 293 (transient), membrane preparations
Experimental: as §1

[11] = molecular target: T3, human 5-HT2B receptor (Homo sapiens, UniProt P41595); assay: Agonist activity at the 5-HT2B receptor, FLIPR calcium flux in HEK 293 cells; assay type: cell-based
T3 construct: expressed in transfected cells
T3 sequence (P41595 whole entry): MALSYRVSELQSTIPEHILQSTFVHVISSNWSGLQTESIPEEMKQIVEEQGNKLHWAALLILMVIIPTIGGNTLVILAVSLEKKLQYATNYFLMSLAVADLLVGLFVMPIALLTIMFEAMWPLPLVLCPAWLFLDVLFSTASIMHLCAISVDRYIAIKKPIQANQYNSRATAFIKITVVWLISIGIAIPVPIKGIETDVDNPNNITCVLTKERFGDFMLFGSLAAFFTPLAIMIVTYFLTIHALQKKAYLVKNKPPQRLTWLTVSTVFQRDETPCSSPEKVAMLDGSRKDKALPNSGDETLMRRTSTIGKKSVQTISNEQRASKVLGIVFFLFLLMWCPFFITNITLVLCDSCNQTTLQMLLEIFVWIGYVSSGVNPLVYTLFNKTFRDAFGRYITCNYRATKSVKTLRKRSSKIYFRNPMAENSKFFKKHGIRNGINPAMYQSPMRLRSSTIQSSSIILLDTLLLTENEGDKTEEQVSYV
Experimental: HEK 293 cells stably expressing the human 5-HT2B receptor were incubated overnight in poly-D-lysine-coated 96-well plates at a density of 50,000 cells per well and 37 °C. Thereafter, the growth medium was removed by snap inversion and 200 μL of no wash dye (FLIPR calcium 6 assay kit; Molecular Devices, Sunnyvale, CA, USA) was added to each well. The plates were incubated for 2 h at 37 °C and then placed into a FLIPR. Fifty microliters of the test drugs diluted in assay buffer was added to each well online and the increase in fluorescence was measured for 51 s. EC50 values were derived from the concentration–response curves using nonlinear regression.

[12] = molecular target: T1, human 5-HT2A receptor; design: expressed in transfected cells; host or cells: HEK 293 (transient); method as in Luethi et al. 2018; conditions: 5-HT2A calcium flux assays; ref Luethi et al. 2018; cited from earlier work
[13] = tested on: male C57BL/6 J mice; design: method as in Halberstadt et al. (2019a); conditions: HTR, previous experiment using similar methods; ref Halberstadt et al. (2019a); cited from earlier work
[14] = read-out: ED50 µmol/kg (95% CI)

T1 sequence (P28223 whole entry): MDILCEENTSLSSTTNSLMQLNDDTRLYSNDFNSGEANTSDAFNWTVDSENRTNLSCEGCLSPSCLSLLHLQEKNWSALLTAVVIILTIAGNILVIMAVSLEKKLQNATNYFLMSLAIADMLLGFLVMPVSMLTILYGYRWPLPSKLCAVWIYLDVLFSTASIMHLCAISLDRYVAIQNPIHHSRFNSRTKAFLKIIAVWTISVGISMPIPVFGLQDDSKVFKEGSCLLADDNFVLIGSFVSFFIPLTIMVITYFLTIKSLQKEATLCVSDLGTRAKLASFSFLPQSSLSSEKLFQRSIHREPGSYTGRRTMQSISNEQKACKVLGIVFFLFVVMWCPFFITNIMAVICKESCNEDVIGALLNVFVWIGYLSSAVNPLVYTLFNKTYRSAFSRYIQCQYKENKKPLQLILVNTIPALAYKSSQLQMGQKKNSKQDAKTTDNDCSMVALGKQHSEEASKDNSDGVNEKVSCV

SMILES	HTR Counts (Mean ± SEM) ([2]; 0.1 mg/kg IP)	HTR Counts (Mean ± SEM) ([2]; 0.3 mg/kg IP)	HTR Counts (Mean ± SEM) ([2]; 1 mg/kg IP)	HTR Counts (Mean ± SEM) ([2]; 3 mg/kg IP)	ED50 [2, 14]	ED50 ([2]; read-out: ED50 mg/kg (95% CI))	maximum number of head twitches (mean ± SEM) [2]	substitution for training drug (in words) [3]	Ki ([1]; ref Luethi et al. (2018))	Human active dose range [6]	HTR Counts (Mean ± SEM) ([2]; 10 mg/kg IP)	effect on HTR counts (in words) [2]	5-HT2A agonist efficacy (in words) [12]	other results
CCSc1cc(OC)c(CCN)cc1OC.Cl [Compound 2C-T-2, 2,5-dimethoxy-4-ethylthiophenethylamine hydrochloride]	12.2 ± 1.9	28.4 ± 4.7	65.2 ± 5.9	36.8 ± 11.5	1.44 µmol/kg	0.4 mg/kg	65.2 ± 5.9	partial generalization	–	–	–	–	–	Ki ([1]; ref Rickli et al. (2015)): 9 nM
CCCSc1cc(OC)c(CCN)cc1OC.Cl [Compound 2C-T-7, 2,5-dimethoxy-4-n-propylthiophenethylamine hydrochloride]	11.8 ± 1.3	18.4 ± 3.5	70.2 ± 10.6	58.6 ± 9.7	2.12 µmol/kg	0.62 mg/kg	70.2 ± 10.6	partial generalization	5.3 nM	10 to 30 mg	–	–	–	effects in DOM-trained animals (in words) [4]: hallucinogen-like effects; effects in DOM-trained animals (in words) [5]: hallucinogen-like effects; HTR after pretreatment with 5-HT2A antagonist M100907 (in words) ([7]; mice pretreated with M100907): blocked; induction of HTR (in words) ([7]; mice): induce the head-twitch response
COc1cc(SCCF)c(OC)cc1CCN.Cl [Compound 2C-T-21, 2,5-dimethoxy-4-(2-fluoroethylthio)phenethylamine hydrochloride]	–	8.8 ± 2.1	19.8 ± 2.7	61.8 ± 5.0	5.58 µmol/kg	1.65 mg/kg	–	–	–	8 to 20 mg	72.6 ± 9.4	–	–	EC50 [8]: 9.7 ± 0.1 nM; Emax ([8]; NIH3T3, calcium flux, relative to 5-HT, read-out: h5-HT2A Emax): 69 ± 4.8%; Ki [9]: 72.7 ± 10.6 nM; Human potency range ([6]; dose range active as psychedelic in humans, ref Shulgin and Shulgin (1991)): 8–12 mg ^[5]; Ki [10]: 27.7 ± 6.2 nM; EC50 [11]: 102 ± 24 nM; Emax ([11]; HEK293, calcium flux, read-out: h5-HT2B Emax): 32 ± 1.8%
COc1cc(SCc2ccccc2)c(OC)cc1CCN.Cl [Compound 2C-T-27, 4-benzylthio-2,5-dimethoxyphenethylamine hydrochloride]	–	–	–	9.0 ± 0.8	7.3 µmol/kg	2.48 mg/kg	–	–	1.6 nM	–	–	relatively weak	low efficacy partial agonists	HTR Counts (Mean ± SEM) ([2]; 1.5 mg/kg IP): 6.0 ± 1.6; HTR Counts (Mean ± SEM) ([2]; 6 mg/kg IP): 12.8 ± 2.0; HTR Counts (Mean ± SEM) ([2]; 12 mg/kg IP): 10.8 ± 3.6; HTR Counts (Mean ± SEM) ([2]; 24 mg/kg IP): 5.4 ± 2.0
COc1cccc(CSc2cc(OC)c(CCN)cc2OC)c1.Cl [Compound 2C-T-33, 2,5-dimethoxy-4-(3-methoxybenzylthio)phenethylamine hydrochloride]	–	8.6 ± 2.2	5.0 ± 2.8	9.6 ± 1.7	–	–	–	–	1.7 nM	–	7.8 ± 0.8	did not produce a significant increase in HTR counts	low efficacy partial agonists	–
COc1cc(OC)c(OC)cc1CC(C)N (centres unmarked) [TMA-2, 2,4,5-trimethoxyamphetamine]	–	–	–	–	–	–	–	–	–	–	–	–	–	ED50 µmol/kg (95% CI) [13]: 12.4 (8.6–17.8) ^[1] µmol/kg; ED50 mg/kg (95% CI) [13]: 2.79 (1.94–4.01) ^[1] mg/kg

— article PMC9816194, “Use of the head-twitch response to investigate the structure–activity relationships of 4-thio-substituted 2,5-dimethoxyphenylalkylamines” (Psychopharmacology, 2022)
